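Tested at 5 concentrations; 48 h exposure; 96-well plates; endpoints linearly interpolated, else capped at highest concentration. Here, GI50 denotes the concentration required for 50% inhibition of growth.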 Active and inactive are the calls of the source. No stated cut-off is given here; in the data, active = GI50 up to about 1.1 µM and inactive = higher.

Results on 9 compounds are retold here after ChEMBL document CHEMBL1201862, “PubChem BioAssay data set” (2004).

Common to all, as to experiment: NCI anticancer screen, dose series, 48 h
Experiment [1] deals with HOP-92.
The test system of experiment [2] is IGROV-1.
The subject of experiment [3] is U-251.
In experiment [4] the test system is LOX IMVI.
Experiment [5] has as its system RXF 393.
The subject of experiment [6] is TK-10.
Experiment [7] relates to M14.
For experiment [8], the system named is SNB-75.
In experiment [9] the test system is SN12C.
For experiment [10], the system named is HOP-62.
Experiment [11] deals with HCC 2998.
Experiment [12] relates to SK-OV-3.
Experiment [13] concerns ACHN.
The subject of experiment [14] is UO-31.
The subject of experiment [15] is NCI-H460.
Experiment [16] has as its system SF-539.
Experiment [17] has as its system MOLT-4.
Experiment [18] has as its system Malme-3M.
Experiment [19] concerns OVCAR-3.
The test system of experiment [20] is NCI-H226.

Regarding `CC(C)(C)C1(O)Cc2ccccc2C(=O)O1` (stereo not given), the GI50 in experiment [1], in experiment [2], in experiment [3], in [4], in [5] and in [6] was > 100 µM (inactive) each time. Besides, the GI50 in experiment [7], in experiment [8], in experiment [9], in experiment [10], in experiment [11] and in [12] was > 100 µM (inactive) each time. The GI50 in experiment [13], in experiment [14], in [15], in experiment [16], in [17] and in experiment [18] was > 100 µM (inactive) in each case. Also, the GI50 in experiment [19] and in experiment [20] was > 100 µM (inactive) throughout.

For `CN(C)c1ccc(/C=C(\NC(=O)c2ccccc2)C(=O)Nc2ccccc2C(=O)NCc2ccccc2)cc1`, the GI50 is > 100 µM (inactive) in [1]; > 100 µM (inactive) in [2]; 46.8 µM (inactive) in experiment [3]; > 100 µM (inactive) in experiment [4]; > 100 µM (inactive) in [5]; > 100 µM (inactive) in experiment [6]. For the same compound, the GI50 in experiment [7] is 77.6 µM (inactive); in [8], 0.0955 µM (active); in experiment [9], > 100 µM (inactive); in [10], 31.4 µM (inactive); in experiment [11] it was > 100 µM (inactive); in experiment [12], > 100 µM (inactive). Besides, the GI50 is > 100 µM (inactive) in [13]; > 100 µM (inactive) in experiment [14]; > 100 µM (inactive) in experiment [15]; 66.5 µM (inactive) in experiment [16]; 56.4 µM (inactive) in experiment [17]; > 100 µM (inactive) in experiment [18]. Moreover, the GI50 was > 100 µM (inactive) in [19] and 50.8 µM (inactive) in experiment [20].

For the compound `O=C(Nc1cc(C(F)(F)F)ccc1Cl)C(=O)C(C(=O)c1ccc2ccccc2c1)C1OC(=O)c2ccccc21` (stereo not given), the GI50 was 11.8 µM (inactive) in experiment [1]; 23.3 µM (inactive) in experiment [2]; 2 µM (inactive) in experiment [3]; 6.32 µM (inactive) in [4]; 1.2 µM (inactive) in experiment [5]; 20.7 µM (inactive) in experiment [6]. Besides, the GI50 in experiment [7] is 12.2 µM (inactive); in experiment [8], 7.41 µM (inactive); in [9], 13 µM (inactive); in [10], 6.01 µM (inactive); in [11], 10.1 µM (inactive); in experiment [12], 31.3 µM (inactive). For the same compound, the GI50 in experiment [13] is 17 µM (inactive); in [14], 12.4 µM (inactive); in experiment [15], 3.79 µM (inactive); in experiment [16], 2.08 µM (inactive); in experiment [17], 2.09 µM (inactive); in [18], 11.6 µM (inactive). The GI50 in experiment [19] is 13.9 µM (inactive); in [20] it was 0.881 µM (active).

For `COc1cc2cc(c1Cl)N(C)C(=O)C[C@H](OC(=O)[C@H](C)N(C)C(C)=O)[C@]1(C)O[C@H]1[C@H](C)[C@@H]1C[C@@](O)(NC(=O)O1)[C@H](OC)/C=C/C=C(/C)C2`, the GI50 was 0.0118 µM (active) in [1]; 0.0239 µM (active) in [2]; 0.015 µM (active) in experiment [3]; 0.0153 µM (active) in experiment [4]; 0.0236 µM (active) in [5]; 0.238 µM (active) in experiment [6]. The GI50 was 0.0509 µM (active) in [7]; 0.0174 µM (active) in experiment [8]; 0.0203 µM (active) in experiment [9]; 0.0199 µM (active) in experiment [10]; 0.0175 µM (active) in experiment [11]; 0.0444 µM (active) in [12]. Besides, the GI50 in experiment [13] is 0.0526 µM (active); in experiment [14], 0.0944 µM (active); in experiment [15], 0.0157 µM (active); in experiment [16], 0.015 µM (active); in [17], 0.0229 µM (active); in [18], 0.0351 µM (active). Further, the GI50 was 0.0127 µM (active) in experiment [19] and 0.0435 µM (active) in experiment [20].

Consider `CN(C)CCCNC(=O)CCNC(=O)c1cc(NC(=O)c2cc(NC(=O)c3cc(NC(=O)c4nc(NC(=O)CCCNC(=O)c5cc(NC(=O)c6cc(NC(=O)c7cc(NC(=O)c8nccn8C)cn7C)cn6C)cn5C)cn4C)cn3C)cn2C)cn1C`, for which the GI50 in experiment [1], in experiment [2], in experiment [3], in experiment [4], in experiment [5] and in [6] was > 100 µM (inactive) each time. Also, the GI50 in experiment [7], in [8], in [9], in experiment [10], in [11] and in experiment [12] was > 100 µM (inactive) in each case. Further, the GI50 in experiment [13], in experiment [14], in experiment [15], in experiment [16], in experiment [17] and in [18] was > 100 µM (inactive) each time. The GI50 in experiment [19] and in experiment [20] was > 100 µM (inactive) in each case.

For `O=C(O)CN1CCNCCN(CC(=O)O)CCNCC1`, the GI50 was 82.4 µM (inactive) in experiment [1]; 24.3 µM (inactive) in [2]; 9.06 µM (inactive) in experiment [3]; 79.4 µM (inactive) in experiment [4]; > 100 µM (inactive) in experiment [5]; > 100 µM (inactive) in experiment [6]. In addition, the GI50 was > 100 µM (inactive) in experiment [7]; > 21.5 µM (inactive) in experiment [8]; > 100 µM (inactive) in experiment [9]; > 100 µM (inactive) in experiment [10]; > 82.2 µM (inactive) in experiment [11]; 20.1 µM (inactive) in experiment [12]. Moreover, the GI50 in experiment [13] was > 100 µM (inactive); in experiment [14], > 100 µM (inactive); in experiment [15], 8.49 µM (inactive); in experiment [16], > 100 µM (inactive); in experiment [17], 5.14 µM (inactive); in experiment [18], 56.9 µM (inactive). Also, the GI50 in experiment [19] is > 100 µM (inactive); in experiment [20], > 64.7 µM (inactive).

`C[C@]12CC[C@H]3[C@@H](CCC4=CC(=O)C=C[C@@]43OC(=O)C(F)(F)F)[C@@H]1CCC2=O`: the GI50 in experiment [1], in experiment [2], in experiment [3], in experiment [4], in experiment [5] and in experiment [6] was > 100 µM (inactive) each time. The GI50 in [7], in [8], in experiment [9], in experiment [10], in experiment [11] and in experiment [12] was > 100 µM (inactive) each time. Also, the GI50 was > 100 µM (inactive) in experiment [13]; > 100 µM (inactive) in experiment [14]; > 100 µM (inactive) in experiment [15]; > 100 µM (inactive) in [16]; > 95.5 µM (inactive) in experiment [17]; 0.558 µM (active) in [18]. Also, the GI50 in experiment [19] and in experiment [20] was > 100 µM (inactive) throughout.

For the compound `O=C(NCCS(=O)(=O)N1C(=O)C2CCCN2C(=O)[C@@H]1Cc1ccccc1)OCc1ccccc1` (stereo not given in full), the GI50 was 27.7 µM (inactive) in experiment [1]; 72.6 µM (inactive) in experiment [2]; 55.3 µM (inactive) in experiment [3]; 50.6 µM (inactive) in experiment [4]; 38 µM (inactive) in experiment [5]; 38.1 µM (inactive) in experiment [6]. The GI50 was 36 µM (inactive) in experiment [7]; 33.3 µM (inactive) in experiment [8]; 52.8 µM (inactive) in experiment [9]; 99.8 µM (inactive) in experiment [10]; 24 µM (inactive) in experiment [11]; > 100 µM (inactive) in experiment [12]. In addition, the GI50 in experiment [13] is 35 µM (inactive); in [14] it was 28.2 µM (inactive); in experiment [15] it was 40.4 µM (inactive); in [16], 76.6 µM (inactive); in experiment [17], 48 µM (inactive); in experiment [18], 74 µM (inactive). In addition, the GI50 in experiment [19] was 33.5 µM (inactive); in experiment [20], 51.8 µM (inactive).

For `Cc1nc2c(o1)C(=O)c1ccccc1/C2=N/c1ccc(N2CCOCC2)cc1`, the GI50 in [1] was 10.7 µM (inactive); in experiment [2] it was 8.71 µM (inactive); in [3], 3.52 µM (inactive); in [4], 2.01 µM (inactive); in experiment [5], 0.421 µM (active); in experiment [6], 48 µM (inactive). Also, the GI50 in [7] was 1.8 µM (inactive); in [8] it was 2.46 µM (inactive); in experiment [9], 3.18 µM (inactive); in [10] it was 8.85 µM (inactive); in experiment [11] it was 34.1 µM (inactive); in [12], 37.8 µM (inactive). For the same compound, the GI50 is 3.61 µM (inactive) in experiment [13]; 3.43 µM (inactive) in experiment [14]; 11.1 µM (inactive) in experiment [15]; 2.49 µM (inactive) in [16]; 4.91 µM (inactive) in experiment [17]; 1.74 µM (inactive) in experiment [18]. Further, the GI50 was 1.69 µM (inactive) in experiment [19] and 20.5 µM (inactive) in experiment [20].
